10 molecules from ChEMBL document CHEMBL1141243, “Antioxidant and cytotoxic activities of xanthones from Cudrania tricuspidata” (Bioorg Med Chem Lett, 2005) can be followed below.

Assay [1] concerns Radical scavenging activity. Description: Superoxide radical scavenging activity of Cudriana tricuspidata extracts. The class given is functional, Maclura tricuspidata.
In assay [2] the test system is Radical scavenging activity. Nature of the assay: Hydroxyl radical scavenging activity of Cudriana tricuspidata extracts. Type of assay: functional.
In a further assay the test system is HT-29. Nature of the assay: Cytotoxicity against human cancer HT29 cell line by MTT assay. The class given is functional. The note with it: read-out: LD50 (the source's name). Background: Tetrazolium assays rely on reduction of a dye to a coloured formazan, in cell work by metabolically active cells.
Assay [3] relates to HL-60. Nature of the assay: Cytotoxicity against human cancer HL60 cell line by MTT assay. Type of assay: functional. The following applies: read-out: LD50 (the source's name).
The next assay deals with SK-OV-3. Description: Cytotoxicity against human cancer SKOV3 cell line by MTT assay. The class given is functional. The following applies: read-out: LD50 (the source's name).
A further assay concerns AGS. Nature of the assay: Cytotoxicity against human cancer AGS cell line by MTT assay. The following applies: read-out: LD50 (the source's name). Type of assay: functional.
In another assay the test system is A549. Description: Cytotoxicity against human cancer A549 cell line by MTT assay. The note with it: read-out: LD50 (the source's name). Type of assay: functional.
Assay [4] has as its system Radical scavenging activity. Nature of the assay: DPPH radical scavenging activity of Cudriana tricuspidata extracts. The class given is functional, Maclura tricuspidata.
For assay [5], the system named is HL-60. Nature of the assay: Cytotoxic activity in HL60 by DNA fragmentation assay. The class given is functional, cell-based. The following applies: Homo sapiens.

Active and inactive are the calls of the source. No cut-off for these calls is given here.

What is called IC50 is the concentration at which inhibition is half-maximal.

Consider `C=CC(C)(C)c1c(O)c(CC=C(C)C)c2oc3cc(O)c(O)cc3c(=O)c2c1O` [MACLURAXANTHONE B], for which the IC50 in assay [1] amounted to 47.8 µM; in assay [2], 74.1 µM; in [4], 15.4 µM. The CC50 in the assay on HT-29 was determined as 28 µM; in the assay on HL-60 [3], 29.5 µM; in the assay with SK-OV-3 it was 23.1 µM; in the assay with AGS, 15.2 µM; with A549, 25.8 µM. Besides, the outcome in the assay on HL-60 [5] was Active.
With `C=CC(C)(C)c1c(O)cc(O)c2c(=O)c3c(CC=C(C)C)c(O)c(O)cc3oc12` [CUDRATRICUSXANTHONE A], the results for the IC50 in assay [1], in assay [2] and in assay [4] were 51 µM, 21.2 µM and 21.3 µM, respectively. For the same molecule, the CC50 with HT-29 turned out to be 41.4 µM; in the assay with HL-60 [3] it was 32.8 µM; in the assay on SK-OV-3 it was 43.2 µM; in the assay on AGS it was 32.8 µM; in the assay on A549, 45.8 µM. Also, the outcome in the assay on HL-60 [5] was Active.
Regarding `Cc1c(C)c2c(c(C)c1O)CCC(C)(C(=O)O)O2` (stereo not given) [TROLOX], the figures for the IC50 in [1], in [2] and in assay [4] were 33.6 µM, 48.2 µM and 10.6 µM, respectively.
On to `C=CC(C)(C)c1c(OC)cc(O)c2c(=O)c3ccc(O)c(O)c3oc12` [ISOCUDRANIAXANTHONE B], for which the values for the IC50 in assay [1], in [2] and in assay [4] were 29.5 µM, 101 µM and 31.8 µM, respectively. Besides, the CC50 turned out to be 65 µM with HT-29; 45.2 µM with HL-60 [3]; 71.3 µM with SK-OV-3; 43.9 µM in the assay with AGS; 57.8 µM with A549. Also, the result in the assay on HL-60 [5] was Active.
On to `C=CC(C)(C)c1c(OC)cc(O)c2c(=O)c3c(CC=C(C)C)c(O)c(O)cc3oc12` [CUDRAXANTHONE D], for which the IC50 amounted to 92.8 µM in assay [1], 25.2 µM in assay [2] and 17.4 µM in assay [4]. In addition, the CC50 in the assay with HT-29 was found to be 20.7 µM; in the assay on HL-60 [3], 6.2 µM; in the assay on SK-OV-3, 23.8 µM; in the assay on AGS, 4.7 µM; in the assay on A549 it was 16.3 µM. Moreover, in the assay on HL-60 [5], the outcome was Active.
As for `C=CC(C)(C)c1c(O)cc2oc3c(CC=C(C)C)c(O)c(O)cc3c(=O)c2c1O` [CUDRAXANTHONE L], the values for the IC50 in assay [1], in assay [2] and in [4] were 23.6 µM, 50.3 µM and 13.7 µM, respectively. The CC50 with HT-29 was 11.4 µM; in the assay on HL-60 [3], 8.6 µM; in the assay with SK-OV-3, 38 µM; in the assay on AGS, 3.9 µM; in the assay with A549 it was 33.5 µM. The outcome in the assay on HL-60 [5] was Active.
`COc1cccc2c1C(=O)c1c(O)c3c(c(O)c1C2=O)C[C@@](O)(C(=O)CO)C[C@@H]3O[C@H]1C[C@H](N)[C@H](O)[C@H](C)O1` [DOXORUBICIN]: the CC50 with HT-29 turned out to be 1.8 µM; in the assay with HL-60 [3] it was 1.1 µM; in the assay with SK-OV-3, 14.2 µM; with AGS it was 1.2 µM; with A549 it was 1.3 µM.
In the case of `CC(C)=CCc1c(O)c(O)cc2c(=O)c3c(O)c4c(cc3oc12)OC(C)C4(C)C` (stereo not given) [CUDRAXANTHONE M], the results for the IC50 in [1], in assay [2] and in assay [4] were 26 µM, 42.6 µM and 10.4 µM, respectively. Besides, the CC50 was 12.1 µM with HT-29; 8.2 µM with HL-60 [3]; 14.6 µM in the assay on SK-OV-3; 4.1 µM with AGS; 11.8 µM in the assay on A549. For the same molecule, the outcome in the assay with HL-60 [5] was Active.
As to `C=CC(C)(C)c1c(O)cc(O)c2c(=O)c3cc(O)c4c(c3oc12)C=CC(C)(C)O4`, the IC50 was 64.5 µM in assay [1], 55.5 µM in assay [2] and greater than 200 µM in assay [4]. Besides, the CC50 with HT-29 is 46.3 µM; with HL-60 [3], 35.9 µM; with SK-OV-3, 70.4 µM; with AGS it was 44.7 µM; in the assay on A549, 61.9 µM. Also, in the assay with HL-60 [5], the outcome was Active.
On to `C=CC(C)(C)c1c(O)cc(O)c2c(=O)c3c(CC=C(C)C)c(OC)c(O)cc3oc12` [CUDRAXANTHONE C], for which the values for the IC50 in assay [1], in assay [2] and in assay [4] were 85.1 µM, 24.3 µM and greater than 200 µM, respectively. Also, the CC50 with HT-29 amounted to 50.7 µM; in the assay on HL-60 [3], 40.8 µM; in the assay on SK-OV-3, 73.5 µM; with AGS it was 49.5 µM; in the assay with A549 it was 61.7 µM. The result with HL-60 [5] was Active.
